From PubChem BioAssay AID248 (DTP/NCI, 2004)
“And” between values parts separate entries of the source, which are not always exact repeats. Identical values can stand only once. Toxic doses and inconclusive results are not listed. Rule as the data show it: active = T/C of 150% or more; inactive = T/C below 125%.

Tested on: L1210 leukemia ip in BDF1 mice, survival T/C
Assay: NCI In Vivo Anticancer Drug Screen. Data for tumor model L1210 Leukemia (intraperitoneal) in B6D2F1 (BDF1) mice
Details: endpoint: mean survival time, higher = longer survival
In short: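 Each compound was tested against a transplantable tumor grown in mice. The endpoint was survival, with treated animals benchmarked against vehicle controls as a simple ratio.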

[1] = dose: 100.0 mg/kg/injection, schedule: Q04DX002 (ip), vehicle: saline with Tween-80
[2] = dose: 200.0 mg/kg/injection, schedule: Q04DX002 (ip), vehicle: saline with Tween-80
[3] = dose: 400.0 mg/kg/injection, schedule: Q04DX002 (ip), vehicle: saline with Tween-80
[4] = dose: 100.0 mg/kg/injection, schedule: Q01DX009 (ip), vehicle: saline with Tween-80
[5] = dose: 25.0 mg/kg/injection, schedule: Q01DX009 (ip), vehicle: Klucel (hydroxypropylcellulose) (HPC)
[6] = dose: 25.0 mg/kg/injection, schedule: Q04DX003 (ip), vehicle: Klucel (hydroxypropylcellulose) (HPC)
[7] = dose: 50.0 mg/kg/injection, schedule: Q01DX009 (ip), vehicle: Klucel (hydroxypropylcellulose) (HPC)
[8] = dose: 50.0 mg/kg/injection, schedule: Q04DX003 (ip), vehicle: Klucel (hydroxypropylcellulose) (HPC)
[9] = dose: 100.0 mg/kg/injection, schedule: Q01DX009 (ip), vehicle: Klucel (hydroxypropylcellulose) (HPC)
[10] = dose: 100.0 mg/kg/injection, schedule: Q04DX003 (ip), vehicle: Klucel (hydroxypropylcellulose) (HPC)
[11] = dose: 100.0 mg/kg/injection, schedule: Q04DX003 (ip), vehicle: saline with Tween-80
[12] = dose: 200.0 mg/kg/injection, schedule: Q04DX003 (ip), vehicle: saline with Tween-80
[13] = dose: 400.0 mg/kg/injection, schedule: Q04DX003 (ip), vehicle: saline with Tween-80

Measured: T/C

CCOCC(=O)Oc1ccc(/C=N/NC(N)=S)nc1
inactive: [1] 116 % of control | [2] 113 % of control | [3] 116 % of control

CC(C)(COC(=O)c1ccc(N)cc1)NC1CCCCC1
inactive: dose: 75.0 mg/kg/injection, schedule: Q01DX001 (ip), vehicle: saline 96 % of control

O=C(O)c1ccc(S(=O)(=O)O)cc1C(=O)O
inactive: dose: 50.0 mg/kg/injection, schedule: Q01DX001 (sc), vehicle: olive oil, sesame oil, peanut oil 104 % of control | dose: 100.0 mg/kg/injection, schedule: Q01DX001 (sc), vehicle: olive oil, sesame oil, peanut oil 102 % of control | [4] 89 % of control | dose: 100.0 mg/kg/injection, schedule: Q04DX003 (ip), vehicle: saline 104 % of control | dose: 200.0 mg/kg/injection, schedule: Q01DX001 (sc), vehicle: olive oil, sesame oil, peanut oil 96 % of control | dose: 200.0 mg/kg/injection, schedule: Q01DX009 (ip), vehicle: saline with Tween-80 88 % of control | dose: 200.0 mg/kg/injection, schedule: Q04DX003 (ip), vehicle: saline 102 % of control | dose: 400.0 mg/kg/injection, schedule: Q01DX001 (sc), vehicle: olive oil, sesame oil, peanut oil 98 % of control | dose: 400.0 mg/kg/injection, schedule: Q04DX003 (ip), vehicle: saline 101 % of control

N#Cc1c(CSC(=N)N)sc2ccccc12
inactive: dose: 12.5 mg/kg/injection, schedule: Q04DX003 (ip), vehicle: Klucel (hydroxypropylcellulose) (HPC) 102 % of control | [5] 105 % of control | [6] 101 % of control | [7] 101 % of control | [8] 96 % of control | [9] 100 % of control | [10] 98 % of control

NNc1cc(S(=O)(=O)O)cc2cc(S(=O)(=O)O)cc(O)c12
inactive: dose: 75.0 mg/kg/injection, schedule: Q01DX009 (ip), vehicle: Klucel (hydroxypropylcellulose) (HPC) 107 % of control | dose: 150.0 mg/kg/injection, schedule: Q01DX009 (ip), vehicle: Klucel (hydroxypropylcellulose) (HPC) 107 % of control | dose: 300.0 mg/kg/injection, schedule: Q01DX009 (ip), vehicle: Klucel (hydroxypropylcellulose) (HPC) 104 % of control

N/C(N=P(c1ccccc1)(c1ccccc1)c1ccccc1)=N\[N+](=O)[O-]
inactive: dose: 100.0 mg/kg/injection, schedule: Q04DX002 (ip), vehicle: gum acacia 101 % of control | dose: 200.0 mg/kg/injection, schedule: Q04DX002 (ip), vehicle: gum acacia 107 % of control | dose: 400.0 mg/kg/injection, schedule: Q04DX002 (ip), vehicle: gum acacia 101 % of control

BrC1=C(Br)C(Br)(Br)C(Br)=C1Br
inactive: dose: 10.0 mg/kg/injection, schedule: Q01DX001 (ip), vehicle: saline 101 % of control | dose: 20.0 mg/kg/injection, schedule: Q01DX001 (ip), vehicle: saline 98 % of control

CCOC(=O)C1CC(C)c2[nH]c3ccccc3c21 (centres undefined)
inactive: dose: 100.0 mg/kg/injection, schedule: Q04DX002 (ip), vehicle: Klucel (hydroxypropylcellulose) (HPC) 110 % of control | dose: 200.0 mg/kg/injection, schedule: Q04DX002 (ip), vehicle: Klucel (hydroxypropylcellulose) (HPC) 107 % of control | dose: 400.0 mg/kg/injection, schedule: Q04DX002 (ip), vehicle: Klucel (hydroxypropylcellulose) (HPC) 89 % of control

ClC/C=C/C[P+](c1ccccc1)(c1ccccc1)c1ccccc1
inactive: dose: 1.56 mg/kg/injection, schedule: Q01DX009 (ip), vehicle: saline 89 % of control | dose: 3.12 mg/kg/injection, schedule: Q01DX009 (ip), vehicle: saline 99 % of control | dose: 6.25 mg/kg/injection, schedule: Q01DX009 (ip), vehicle: saline 95 % of control

COc1cc2oc3cc(C)oc(=O)c3c2cc1OC
inactive: [1] 106 % of control | [2] 95 % of control | [3] 103 % of control

O=S(=O)(O)CCl
inactive: dose: 100.0 mg/kg/injection, schedule: Q04DX002 (ip), vehicle: saline 106 % of control | dose: 200.0 mg/kg/injection, schedule: Q04DX002 (ip), vehicle: saline 120 % of control | dose: 400.0 mg/kg/injection, schedule: Q04DX002 (ip), vehicle: saline 102 % of control

CCN(CC)Cc1cc(Nc2c(C)cnc3cc(Cl)ccc23)ccc1O
inactive: dose: 25.0 mg/kg/injection, schedule: Q01DX009 (ip), vehicle: saline 94 % of control | dose: 50.0 mg/kg/injection, schedule: Q01DX009 (ip), vehicle: saline 90 % of control

O=Nc1c2cc3ccccc3[nH]c-2c2ccccc12
inactive: dose: 50.0 mg/kg/injection, schedule: Q01DX001 (ip), vehicle: Klucel (hydroxypropylcellulose) (HPC) 95 % of control | dose: 100.0 mg/kg/injection, schedule: Q01DX001 (ip), vehicle: Klucel (hydroxypropylcellulose) (HPC) 93 % of control | dose: 200.0 mg/kg/injection, schedule: Q01DX001 (ip), vehicle: Klucel (hydroxypropylcellulose) (HPC) 93 % of control

CCc1cccc(CC)c1N1C(=O)C2C(C1=O)C1(Cl)C(Cl)=C(Cl)C2(Cl)C1(Cl)Cl (centres undefined)
inactive: [5] 98 % of control | [6] 91 % of control | [7] 102 % of control | [8] 93 % of control | [9] 105 % of control | [10] 106 % of control and 88 % of control

O=Cc1ccc(OS(=O)(=O)c2ccc([N+](=O)[O-])cc2)cc1
inactive: [9] 97 % of control | dose: 200.0 mg/kg/injection, schedule: Q01DX009 (ip), vehicle: Klucel (hydroxypropylcellulose) (HPC) 98 % of control | dose: 400.0 mg/kg/injection, schedule: Q01DX009 (ip), vehicle: Klucel (hydroxypropylcellulose) (HPC) 90 % of control

S=C(NCc1ccc(Cl)c(Cl)c1)Nc1ccccc1
inactive: [5] 102 % of control | [7] 90 % of control | [9] 87 % of control and 90 % of control

NC(=O)C1=CN(CCc2ccccc2)c2ccccc2C1S(=O)(=O)O (centres undefined)
inactive: dose: 75.0 mg/kg/injection, schedule: Q01DX001 (ip), vehicle: other 98 % of control | dose: 150.0 mg/kg/injection, schedule: Q01DX001 (ip), vehicle: other 94 % of control | dose: 300.0 mg/kg/injection, schedule: Q01DX001 (ip), vehicle: other 96 % of control

N#Cc1cc2ccncc2c2ccccc12
inactive: [11] 100 % of control | [12] 96 % of control | [13] 97 % of control

COc1cc2cc(C)[nH]c2cc1OC
inactive: dose: 50.0 mg/kg/injection, schedule: Q01DX001 (ip), vehicle: saline 101 % of control | dose: 100.0 mg/kg/injection, schedule: Q01DX001 (ip), vehicle: saline 95 % of control | dose: 200.0 mg/kg/injection, schedule: Q01DX001 (ip), vehicle: saline 98 % of control

BrCCOCCBr
inactive: dose: 25.0 mg/kg/injection, schedule: Q01DX009 (ip), vehicle: other 97 % of control | dose: 50.0 mg/kg/injection, schedule: Q01DX009 (ip), vehicle: other 92 % of control | dose: 100.0 mg/kg/injection, schedule: Q01DX009 (ip), vehicle: other 95 % of control

NS(=O)(=O)c1cccc([N+](=O)[O-])c1
inactive: dose: 20.0 mg/kg/injection, schedule: Q04DX003 (ip), vehicle: Klucel (hydroxypropylcellulose) (HPC) 104 % of control | [5] 107 % of control | dose: 40.0 mg/kg/injection, schedule: Q04DX003 (ip), vehicle: Klucel (hydroxypropylcellulose) (HPC) 98 % of control | [7] 100 % of control | dose: 80.0 mg/kg/injection, schedule: Q04DX003 (ip), vehicle: Klucel (hydroxypropylcellulose) (HPC) 107 % of control | [9] 96 % of control | [10] 96 % of control

CC(C)CC(C)OC(C[N+](=O)[O-])C(Cl)(Cl)Cl (centres undefined)
inactive: [4] 93 % of control | [11] 106 % of control | [12] 104 % of control | dose: 400.0 mg/kg/injection, schedule: Q01DX009 (ip), vehicle: saline with Tween-80 93 % of control | [13] 98 % of control

Cc1ncc(CCO)c2c1OC(C)(C)OC2
inactive: dose: 100.0 mg/kg/injection, schedule: Q01DX001 (ip), vehicle: carboxymethylcellulose (CMC) 98 % of control | dose: 200.0 mg/kg/injection, schedule: Q01DX001 (ip), vehicle: carboxymethylcellulose (CMC) 110 % of control | dose: 400.0 mg/kg/injection, schedule: Q01DX001 (ip), vehicle: carboxymethylcellulose (CMC) 101 % of control
